We go through 20 molecules from patent US10238638B2, “Benzothiazole and benzothiophene compounds” (Bristol-Myers Squibb Company, priority 2015, dated 2019).

Molecules are shown by their SMILES.

Chain of PAR4 (Q96RI0 18-385): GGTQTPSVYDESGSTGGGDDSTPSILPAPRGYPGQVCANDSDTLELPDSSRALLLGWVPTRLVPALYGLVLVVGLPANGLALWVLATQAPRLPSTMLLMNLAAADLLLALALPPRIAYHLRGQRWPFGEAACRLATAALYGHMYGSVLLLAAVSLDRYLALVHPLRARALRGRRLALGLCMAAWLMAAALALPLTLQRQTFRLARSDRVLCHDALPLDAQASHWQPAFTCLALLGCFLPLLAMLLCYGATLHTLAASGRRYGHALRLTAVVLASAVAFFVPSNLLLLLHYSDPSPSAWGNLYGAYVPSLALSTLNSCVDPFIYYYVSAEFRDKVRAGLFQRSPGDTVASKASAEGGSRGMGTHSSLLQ

One series addresses PAR4 (Homo sapiens (Human), UniProt Q96RI0). Briefly: FLIPR assay in PAR4-expressing HEK293 cells (calcium mobilization). In kind it is cell-based. The following applies: H-Ala-Phe(4-F)-Pro-Gly-Trp-Leu-Val-Lys-Asn-Gly-NH2-induced calcium mobilization, PAR4 antagonist activity. An excerpt: The FLIPR assay is an exemplary in vitro assay for measuring the activity of the PAR4 antagonists of the present invention. In this assay, intracellular calcium mobilization is induced in PAR4 expressing cells by a PAR4 agonist and calcium mobilization is monitored.
HEK293 cells stably expressing PAR4 were generated by a standard method of transfection of human PAR4 (F2R23) cDNA expression vector and selected based on PAR4 protein expression or mRNA expression. […] Therefore, the same cells were also used to determine selectivity against PAR1 and agonist activity for both receptors.
FLIPR-based calcium mobilization assay in HEK293 cells was used to measure PAR4 antagonism, agonism, and selectivity against PAR1. […] Counter screens for agonist activity and PAR1 antagonist activity were also performed. Briefly, PAR1/PAR4-expressing HEK293 cells were grown in DMEM (Life Technology, Grand Island, N.Y.) containing 10% heat-inactivated FBS, 1% Penicillin-Streptomycin, 10 μg/mL blasticidin, and 100 μg/mL Zeocin at 37° C. with 5% CO2. Cells were plated overnight prior to the experiment in a black 384-well Purecoat Amine clear bottom plate (Becton Dickinson Biosciences, San Jose, Calif.) at 10,000 cells/well in 30 μL growth medium and incubated in a humidified chamber at 37° C. with 5% CO2 overnight. Prior to compound addition, the cell medium was replaced with 40 μL of 1× calcium and magnesium-containing Hank's Balanced Saline Solution (HBSS) (with 20 mM HEPES) and 1:1000 diluted fluorescent calcium indicator (Codex Biosolutions, Gaithersburg, Md.). After a 30 minute incubation period at 37° C. and a further 30 minute incubation and equilibration period at room temperature, 20 μL test compound (diluted in 1×HBSS buffer) was added at various concentrations at 0.17% dimethyl sulfoxide (DMSO) final concentration. Changes in fluorescence intensity were measured using a Functional Drug Screening System (FDSS, Hamamatsu, Japan) to determine agonist activities. The cells were then incubated for 30 minutes at room temperature followed by addition of 20 μL of agonist peptide for antagonist activity measurement. […] Compound potency was derived from 11-point concentration-response curves.
Regarding `COc1cc(OCc2csc(-c3ccc(C(=O)N(C)C)cc3)n2)c2sc(-c3cn4nc(C5CC5)sc4n3)nc2c1` [Example 28, 4-(4-(((2-(2-Cyclopropylimidazo[2,1-b][1,3,4]thiadiazol-6-yl)-5-methoxybenzo[d]thiazol-7-yl)oxy)methyl)thiazol-2-yl)-N,N-dimethylbenzamide], the half-inhibitory concentration (IC50) – broadly, the point on the concentration scale where inhibition reaches its midpoint – was determined as 3700 nM. As for `COc1cc(OCc2csc(-c3ccc(C(=O)N(CCO)C(C)(C)C)cc3)n2)c2sc(-c3cn4nc(C5CC5)sc4n3)nc2c1` [Example 29, N-(tert-Butyl)-4-(4-(((2-(2-cyclopropylimidazo[2,1-b][1,3,4]thiadiazol-6-yl)-5-methoxybenzo[d]thiazol-7-yl)oxy)methyl)thiazol-2-yl)-N-(2-hydroxyethyl)benzamide], the IC50 turned out to be 80000 nM. With `CCc1nn2cc(-c3nc4cc(OC)cc(OCc5csc(-c6ccc(C(=O)OC(C)(C)C)cc6)n5)c4s3)nc2s1` [Example 31, tert-Butyl 4-(4-(((2-(2-ethylimidazo[2,1-b][1,3,4]thiadiazol-6-yl)-5-methoxybenzo[d]thiazol-7-yl)oxy)methyl)thiazol-2-yl)benzoate], the IC50 worked out at 2000 nM. `CCc1nn2cc(-c3nc4cc(OC)cc(OCc5csc(-c6ccc(C(=O)NCC(C)(C)CO)cc6)n5)c4s3)nc2s1` [Example 32, 4-(4-(((2-(2-Ethylimidazo[2,1-b][1,3,4]thiadiazol-6-yl)-5-methoxybenzo[d]thiazol-7-yl)oxy)methyl)thiazol-2-yl)-N-(3-hydroxy-2,2-dimethylpropyl)benzamide]: the half-maximal inhibitory concentration (IC50) worked out at 1400 nM.

Consider `CCc1nn2cc(-c3nc4cc(OC)cc(OCc5csc(-c6ccc(C(=O)N7CCC[C@H](O)C7)cc6)n5)c4s3)nc2s1` [Example 33, (S)-(4-(4-(((2-(2-Ethylimidazo[2,1-b][1,3,4]thiadiazol-6-yl)-5-methoxybenzo[d]thiazol-7-yl)oxy)methyl)thiazol-2-yl)phenyl)(3-hydroxypiperidin-1-yl)methanone], for which the IC50 came to 3600 nM. As to `CCc1nn2cc(-c3nc4cc(OC)cc(OCc5csc(-c6ccc(C(=O)N(C)[C@H]7CCOC7)cc6)n5)c4s3)nc2s1` [Example 34, (S)-4-(4-(((2-(2-Ethylimidazo[2,1-b][1,3,4]thiadiazol-6-yl)-5-methoxybenzo[d]thiazol-7-yl)oxy)methyl)thiazol-2-yl)-N-methyl-N-(tetrahydrofuran-3-yl)benzamide], the IC50 came out at 1300 nM. For `CCc1nn2cc(-c3nc4cc(OC)cc(OCc5csc(-c6ccc(C(=O)N(C)C)cc6)n5)c4s3)nc2s1` [Example 35, 4-(4-(((2-(2-Ethylimidazo[2,1-b][1,3,4]thiadiazol-6-yl)-5-methoxybenzo[d]thiazol-7-yl)oxy)methyl)thiazol-2-yl)-N,N-dimethylbenzamide], the 50% inhibitory concentration (IC50) came to 1200 nM.

Take `CCc1nn2cc(-c3nc4cc(OC)cc(OCc5csc(-c6ccc(C(=O)N7CCC(CCO)CC7)cc6)n5)c4s3)nc2s1` [Example 36, (4-(4-(((2-(2-Ethylimidazo[2,1-b][1,3,4]thiadiazol-6-yl)-5-methoxybenzo[d]thiazol-7-yl)oxy)methyl)thiazol-2-yl)phenyl)(4-(2-hydroxyethyl)piperidin-1-yl)methanone]: the IC50 stood at 1300 nM. The same measure, in the same setting: for `COc1cc(OCc2nc(-c3ccc(C(=O)N4CCC[C@H](O)C4)cc3)sc2C)c2sc(-c3cn4nc(C)sc4n3)nc2c1` [Example 38, (S)-(3-Hydroxypiperidin-1-yl)(4-(4-(((5-methoxy-2-(2-methylimidazo[2,1-b][1,3,4]thiadiazol-6-yl)benzo[d]thiazol-7-yl)oxy)methyl)-5-methylthiazol-2-yl)phenyl)methanone] the value was 1600 nM; for `COc1cc(OCc2nc(-c3ccc(C(=O)N(C)[C@H]4CCOC4)cc3)sc2C)c2sc(-c3cn4nc(C)sc4n3)nc2c1` [Example 39, (S)-4-(4-(((5-Methoxy-2-(2-methylimidazo[2,1-b][1,3,4]thiadiazol-6-yl)benzo[d]thiazol-7-yl)oxy)methyl)-5-methylthiazol-2-yl)-N-methyl-N-(tetrahydrofuran-3-yl)benzamide], 1800 nM; for `COc1cc(OCc2nc(-c3ccc(C(=O)NCC(C)(C)CO)cc3)sc2C)c2sc(-c3cn4nc(C)sc4n3)nc2c1` [Example 40, N-(3-Hydroxy-2,2-dimethylpropyl)-4-(4-(((5-methoxy-2-(2-methylimidazo[2,1-b][1,3,4]thiadiazol-6-yl)benzo[d]thiazol-7-yl)oxy)methyl)-5-methylthiazol-2-yl)benzamide], 1600 nM. As for `COc1cc(OCc2nc(-c3ccc(C(=O)N(C)C)cc3)sc2C)c2sc(-c3cn4nc(C)sc4n3)nc2c1` [Example 41, 4-(4-(((5-Methoxy-2-(2-methylimidazo[2,1-b][1,3,4]thiadiazol-6-yl)benzo[d]thiazol-7-yl)oxy)methyl)-5-methylthiazol-2-yl)-N,N-dimethylbenzamide], the concentration for half-maximal inhibition (IC50) was 1700 nM. Still for that read-out and setting: for `COc1cc(OCc2nc(-c3ccc(C(=O)N4CCC(CCO)CC4)cc3)sc2C)c2sc(-c3cn4nc(C)sc4n3)nc2c1` [Example 42, (4-(2-Hydroxyethyl)piperidin-1-yl)(4-(4-(((5-methoxy-2-(2-methylimidazo[2,1-b][1,3,4]thiadiazol-6-yl)benzo[d]thiazol-7-yl)oxy)methyl)-5-methylthiazol-2-yl)phenyl)methanone] the value was 1100 nM; for `COc1cc(OCc2csc(-c3ccc(C(=O)N(C)C)cc3)n2)c2sc(-c3cn4nc(C)ccc4n3)nc2c1` [Example 44, 4-(4-(((5-Methoxy-2-(6-methylimidazo[1,2-b]pyridazin-2-yl)benzo[d]thiazol-7-yl)oxy)methyl)thiazol-2-yl)-N,N-dimethylbenzamide], 2600 nM. Still for that read-out and setting: for `COc1cc(OCc2csc(-c3ccccc3)n2)c2sc(-c3cn4nc(C)ccc4n3)nc2c1` [Example 45, 5-Methoxy-2-(6-methylimidazo[1,2-b]pyridazin-2-yl)-7-((2-phenylthiazol-4-yl)methoxy)benzo[d]thiazole] the value was 1800 nM; for `COc1cc(OCc2csc(N3CCOCC3)n2)c2sc(-c3cn4nc(C)ccc4n3)nc2c1` [Example 46, 4-(4-(((5-Methoxy-2-(6-methylimidazo[1,2-b]pyridazin-2-yl)benzo[d]thiazol-7-yl)oxy)methyl)thiazol-2-yl)morpholine], 2500 nM. On the same count and under the same terms, for `COc1cc(OCc2csc(-c3ccc(C(=O)N(C)[C@H]4CCOC4)cc3)n2)c2sc(-c3cn4nc(C)ccc4n3)nc2c1` [Example 47, (S)-4-(4-(((5-Methoxy-2-(6-methylimidazo[1,2-b]pyridazin-2-yl)benzo[d]thiazol-7-yl)oxy)methyl)thiazol-2-yl)-N-methyl-N-(tetrahydrofuran-3-yl)benzamide] the value was 6400 nM; for `COc1cc(OCc2csc(-c3ccc(C(=O)N4CCC[C@H](O)C4)cc3)n2)c2sc(-c3cn4nc(C)ccc4n3)nc2c1` [Example 48, (S)-(3-Hydroxypiperidin-1-yl)(4-(4-(((5-methoxy-2-(6-methylimidazo[1,2-b]pyridazin-2-yl)benzo[d]thiazol-7-yl)oxy)methyl)thiazol-2-yl)phenyl)methanone], 9900 nM; for `COc1cc(OCc2csc(-c3ccc(C(=O)N4CCC(C)(CO)CC4)cc3)n2)c2sc(-c3cn4nc(C)sc4n3)nc2c1` [Example 67], 930 nM.

For another series, the target named is PAR1 (Homo sapiens (Human), UniProt P25116).
Chain of PAR1 (P25116 22-425): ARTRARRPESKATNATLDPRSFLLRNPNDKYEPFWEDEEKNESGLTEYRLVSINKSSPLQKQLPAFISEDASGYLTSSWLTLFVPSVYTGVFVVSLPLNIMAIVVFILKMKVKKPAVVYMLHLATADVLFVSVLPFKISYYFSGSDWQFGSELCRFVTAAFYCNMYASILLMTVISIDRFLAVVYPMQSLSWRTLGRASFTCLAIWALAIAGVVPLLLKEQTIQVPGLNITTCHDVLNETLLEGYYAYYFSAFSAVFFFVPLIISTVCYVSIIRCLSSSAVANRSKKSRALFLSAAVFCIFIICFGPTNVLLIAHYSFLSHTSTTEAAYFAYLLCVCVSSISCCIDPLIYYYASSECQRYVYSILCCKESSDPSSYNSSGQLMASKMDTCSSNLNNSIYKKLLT
Assay: not given
The following applies: ACS patients, phase III; cited from earlier work.
With `CCOC(=O)N[C@@H]1CC[C@@H]2[C@@H](C1)C[C@H]1C(=O)O[C@H](C)[C@H]1[C@H]2/C=C/c1ccc(-c2cccc(F)c2)cn1` [vorapaxar], the cardiovascular events result is listed as “did not significantly reduce” and the “risk of major bleeding” value was “significantly increased”.
